Experimental findings from patent EP0103381B1, “Substituted anthra(1,9-cd)pyrazol-6(2H)-ones” (WARNER-LAMBERT COMPANY, priority 1982, dated 1984) are described below.

In experiment [1] the test system is Penicillium avellaneum. The experiment is described as follows: agar plate paper-disc inhibition zone screening. The class given is cell-based. The conditions noted are these: Hamigera avellanea, read-out: Inhibition Zone Diameter mm (Dose mg/ml) P. Avellaneum. The procedure, abridged: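 Mycelia and spores from a six-day 28°C agar culture, suspended in saline with 0.05% Tween 80 at 20% transmittancy, were seeded into molten agar trays. Compounds at 3,000, 1,000, 500, 100 and 10 mcg/ml (solvent <10%) were applied on 12.7 mm paper discs. After at least 20-24 h incubation, inhibition zone diameter was measured in mm.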

For experiment [2], the system named is Bacillus subtilis. Nature of the experiment: agar plate paper-disc inhibition zone screening. The format is cell-based. Particulars: read-out: Inhibition Zone Diameter mm (Dose mg/ml) B. Subtilis; for zone of inhibition at 1000 µg/mL: Dose 1.0 mg/ml. The procedure, abridged: (§1)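 Inoculum: saline suspension, 20-35% transmittancy, in molten agar. Discs 12.7 mm, compound 3,000/1,000/500/100/10 mcg/ml, solvent <10%. 37°C, 18-20 h; zone diameter in mm.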

In experiment [3] the test system is Streptococcus faecalis. Nature of the experiment: agar plate paper-disc inhibition zone screening. The format is cell-based. Particulars: Enterococcus faecalis, read-out: Inhibition Zone Diameter mm (Dose mg/ml) S. Faecalis; for zone of inhibition at 1000 µg/mL: Dose 1.0 mg/ml. Summed up: as §1
Experiment [4] concerns Escherichia coli. The experiment is described as follows: agar plate paper-disc inhibition zone screening. The class given is cell-based. Particulars: read-out: Inhibition Zone Diameter mm (Dose mg/ml) E. Coli; for zone of inhibition at 1000 µg/mL: Dose 1.0 mg/ml; for zone of inhibition at 500 µg/mL: Dose 0.5 mg/ml. Summed up:
as §1

The subject of experiment [5] is Aerobacter aerogenes. The experiment is described as follows: agar plate paper-disc inhibition zone screening. The class given is cell-based. Particulars: Klebsiella aerogenes, read-out: Inhibition Zone Diameter mm (Dose mg/ml) A. Aerogenes; for zone of inhibition at 500 µg/mL: Dose 0.5 mg/ml. Summed up:
as §1

For experiment [6], the system named is lymphocytic leukemia P388. The experiment is described as follows: in vivo lymphocytic leukemia P388 test. More on the design: species or system mice. The conditions noted are these: Mus musculus, P388, ip, 720 h; for response vs control in vivo at 1.56 mg/kg: P388, Dose 1.56 mg/kg intraperitoneally; for response vs control in vivo at 25 mg/kg: P388, Dose 25 mg/kg intraperitoneally; for response vs control in vivo at 0.78 mg/kg: P388, Dose 0.78 mg/kg intraperitoneally. Summed up: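 CD2F mice (6–7 per group) were inoculated intraperitoneally with P388 leukemia ascitic cells. Compounds were then given i.p. as two doses four days apart at various levels. Survival over 30 days was expressed as treated/control time ratio, efficacy criterion T/C×100 >125%.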

Where [7] appears, read: two single doses four days apart, read-out: T/C × 100 (Percent).
Setting [8] is: P388, Dose 3.12 mg/kg intraperitoneally, two single doses four days apart, read-out: T/C × 100 (Percent).
The mark [9] stands for this setting: P388, Dose 6.25 mg/kg intraperitoneally, two single doses four days apart, read-out: T/C × 100 (Percent).
The mark [10] stands for this setting: P388, Dose 50 mg/kg intraperitoneally, two single doses four days apart, read-out: T/C × 100 (Percent).
Where [11] appears, read: P388, Dose 12.5 mg/kg intraperitoneally, two single doses four days apart, read-out: T/C × 100 (Percent).
Setting [12] is: P388, Dose 100 mg/kg intraperitoneally, two single doses four days apart, read-out: T/C × 100 (Percent).

Where two headings read alike, the source gives them in different places.

As for `O=C1c2c(O)ccc(O)c2-c2nn(CCNCCO)c3ccc(NCCNCCO)c1c23` [Example 54, 7,10-Dihydroxy-2-[2-[12-hydroxyethyl)amino]ethyl]-5-[[2-[(2-hydroxyethyl)amino]ethyl]amino]anthra[1,9-cdlpyrazol-6(2H)-one], the zone of inhibition at 3000 µg/mL in experiment [1] (Dose 3.0 mg/ml) amounted to 0 mm; in experiment [2] (Dose 3.0 mg/ml), 14 mm; in experiment [3] (Dose 3.0 mg/ml) it was 0 mm; in experiment [5] (Dose 3.0 mg/ml) it was 15 mm. In addition, the zone of inhibition at 1000 µg/mL in experiment [4] was 14 mm. The response vs control in vivo at 1.56 mg/kg in experiment [6] (setting [7]) stood at 158%. The response vs control in vivo at 3.12 mg/kg in experiment [6] (setting [8]) was 187%. The response vs control in vivo at 6.25 mg/kg in experiment [6] (setting [9]) was found to be 206%. Further, in experiment [6] (setting [7]), the response vs control in vivo at 25 mg/kg amounted to 158%. Moreover, the response vs control in vivo at 50 mg/kg in experiment [6] (setting [10]) is 139%.

Regarding `NCCNc1ccc2c3c(nn2CCNCCO)-c2c(O)ccc(O)c2C(=O)c13` [Example 55, 5-[(2-Aminoethyl)amino]-7,10-dihydroxy-2-[2-[(2-hydroxyethyl)amino]ethyl]anthra[1,9-cd]pyrazol-6(2H)-one], the zone of inhibition at 3000 µg/mL was 0 mm in experiment [1] (Dose 3.0 mg/ml), 14 mm in experiment [2] (Dose 3.0 mg/ml), 0 mm in experiment [3] (Dose 3.0 mg/ml) and 15 mm in experiment [5] (Dose 3.0 mg/ml). The zone of inhibition at 1000 µg/mL in experiment [4] worked out at 14 mm. Moreover, in experiment [6] (P388, Dose 0.39 mg/kg intraperitoneally, two single doses four days apart, read-out: T/C × 100 (Percent)), the response vs control in vivo at 0.39 mg/kg was 175%. Also, the response vs control in vivo at 0.78 mg/kg in experiment [6] (setting [7]) came out at 182%. In experiment [6] (setting [7]), the response vs control in vivo at 1.56 mg/kg was 173%.

With `CN(C)CCNc1ccc2c3c(nn2CCNCCO)-c2c(O)ccc(O)c2C(=O)c13` [Example 56, 5-[[2-(Dimethylamino)ethyl]amino]-7,10-dihydroxy-2-[2-[(2-hydroxyethyl)amino]ethyl]anthra[1,9-cd]pyrazol-6(2H)-one], the zone of inhibition at 3000 µg/mL in experiment [1] (Dose 3.0 mg/ml) amounted to 0 mm. For the same compound, the zone of inhibition at 1000 µg/mL in experiment [2] was 14 mm. For the same compound, the zone of inhibition at 1000 µg/mL in experiment [3] was 14 mm. Moreover, the zone of inhibition at 500 µg/mL in experiment [4] was determined as 14 mm. Also, in experiment [5], the zone of inhibition at 500 µg/mL came to 14 mm. In addition, in experiment [6] (setting [7]), the response vs control in vivo at 0.78 mg/kg stood at 152%, the response vs control in vivo at 1.56 mg/kg amounted to 161% and the response vs control in vivo at 25 mg/kg worked out at 88%. Further, in experiment [6] (setting [8]), the response vs control in vivo at 3.12 mg/kg came out at 165%. Further, the response vs control in vivo at 6.25 mg/kg in experiment [6] (setting [9]) was determined as 165%.

`CCN(CC)CCNc1ccc2c3c(nn2CCNCCO)-c2c(O)ccc(O)c2C(=O)c13` [Example 57, 5-[[2-(Diethylamino)ethyl]amino]-7,10-dihydroxy-2-[2-[(2-hydroxyethyl)amino]ethyl]anthra[1,9-cd]pyrazol-6(2H)-one]: the zone of inhibition at 3000 µg/mL in experiment [1] (Dose 3.0 mg/ml) was 14 mm. Moreover, the zone of inhibition at 500 µg/mL in experiment [2] (Dose 0.5 mg/ml) turned out to be 15 mm; in experiment [4] it was 14 mm; in experiment [5] it was 14 mm. Besides, the zone of inhibition at 1000 µg/mL in experiment [3] stood at 14 mm. Moreover, in experiment [6] (setting [7]), the response vs control in vivo at 1.56 mg/kg was 131%. For the same compound, the response vs control in vivo at 3.12 mg/kg in experiment [6] (setting [8]) came out at 148%. The response vs control in vivo at 6.25 mg/kg in experiment [6] (setting [9]) was 154%. Further, the response vs control in vivo at 12.5 mg/kg in experiment [6] (setting [11]) came out at 177%. In addition, the response vs control in vivo at 25 mg/kg in experiment [6] (setting [7]) turned out to be 190%. For the same compound, the response vs control in vivo at 50 mg/kg in experiment [6] (setting [10]) came out at 241%.

On to `NCCCNc1ccc2c3c(nn2CCNCCO)-c2c(O)ccc(O)c2C(=O)c13` [Example 58, 5-[(3-Aminopropyl)amino]-7,10-dihydroxy-2-[2-[(2-hydroxyethyl)amino]ethyl]anthra[1,9-cd]pyrazol-6(2H)-one], for which the zone of inhibition at 3000 µg/mL in experiment [1] amounted to 0 mm; in experiment [2], 0 mm; in experiment [3] it was 0 mm; in experiment [4] it was 15 mm; in experiment [5] it was 14 mm. Further, the response vs control in vivo at 3.12 mg/kg in experiment [6] (read-out: T/C × 100 (Percent), P388, Dose 3.12 mg/kg intraperitoneally, two single doses four days apart) stood at 165%. In addition, in experiment [6] (read-out: T/C × 100 (Percent), P388, Dose 6.25 mg/kg intraperitoneally, two single doses four days apart), the response vs control in vivo at 6.25 mg/kg amounted to 165%. In addition, the response vs control in vivo at 12.5 mg/kg in experiment [6] (read-out: T/C × 100 (Percent), P388, Dose 12.5 mg/kg intraperitoneally, two single doses four days apart) turned out to be 177%. In addition, the response vs control in vivo at 50 mg/kg in experiment [6] (read-out: T/C × 100 (Percent), P388, Dose 50 mg/kg intraperitoneally, two single doses four days apart) is 254%. In experiment [6] (read-out: T/C × 100 (Percent), P388, Dose 100 mg/kg intraperitoneally, two single doses four days apart), the response vs control in vivo at 100 mg/kg was 131%.

Regarding `NCCCCNc1ccc2c3c(nn2CCNCCO)-c2c(O)ccc(O)c2C(=O)c13` [Example 59, 5-[(4-Aminobutyl)amino]-7,10-dihydroxy-2-[2-[(2-hydroxyethyl)amino]ethyl]anthra[1,9-cd]pyrazol-6(2H)-one], the zone of inhibition at 3000 µg/mL was determined as 0 mm in experiment [1] (Dose 3.0 mg/ml); 0 mm in experiment [2] (Dose 3.0 mg/ml); 0 mm in experiment [3] (Dose 3.0 mg/ml); 15 mm in experiment [4] (Dose 3.0 mg/ml); 16 mm in experiment [5] (Dose 3.0 mg/ml). The response vs control in vivo at 3.12 mg/kg in experiment [6] (setting [8]) was found to be 130%. Besides, the response vs control in vivo at 6.25 mg/kg in experiment [6] (setting [9]) was 131%. Moreover, the response vs control in vivo at 12.5 mg/kg in experiment [6] (setting [11]) turned out to be 139%. Also, the response vs control in vivo at 25 mg/kg in experiment [6] (setting [7]) is 150%. In experiment [6] (setting [12]), the response vs control in vivo at 100 mg/kg was 172%.

With `NCCCCCNc1ccc2c3c(nn2CCNCCO)-c2c(O)ccc(O)c2C(=O)c13` [Example 60, 5-[(5-Aminopentyl)amino]-7,10-dihydroxy-2-[2-[(2-hydroxyethyl)amino]ethyl]anthra[1,9-cd]pyrazol-6(2H)-one], the zone of inhibition at 3000 µg/mL was determined as 0 mm in experiment [1] (Dose 3.0 mg/ml); 0 mm in experiment [2] (Dose 3.0 mg/ml); 0 mm in experiment [3] (Dose 3.0 mg/ml); 14 mm in experiment [4] (Dose 3.0 mg/ml); 0 mm in experiment [5] (Dose 3.0 mg/ml). Also, the response vs control in vivo at 12.5 mg/kg in experiment [6] (setting [11]) is 127%. Besides, the response vs control in vivo at 25 mg/kg in experiment [6] (setting [7]) amounted to 127%. Further, the response vs control in vivo at 50 mg/kg in experiment [6] (setting [10]) was found to be 127%. Also, the response vs control in vivo at 100 mg/kg in experiment [6] (setting [12]) is 150%.

Regarding `O=C1c2c(O)ccc(O)c2-c2nn(CCNCCO)c3ccc(NCCCNCCO)c1c23` [Example 62, 7,10-Dihydroxy-2-[2-[(2-hydroxyethyl)amino]ethyl]-5-[[3-[(2-hydroxyethyt)amino]propyl]amino]anthra[1,9-cd] pyrazol-6(2H)-one], the zone of inhibition at 3000 µg/mL was 0 mm in experiment [1] (Dose 3.0 mg/ml) and 14 mm in experiment [3] (Dose 3.0 mg/ml). Further, the zone of inhibition at 1000 µg/mL in experiment [2] came out at 16 mm. The zone of inhibition at 500 µg/mL in experiment [4] and in experiment [5] was 14 mm in each case. Also, the response vs control in vivo at 3.12 mg/kg in experiment [6] (setting [8]) is 173%.

For `CN(C)CCNCCNc1ccc2c3c(nn2CCNCCO)-c2c(O)ccc(O)c2C(=O)c13` [Example 63], the zone of inhibition at 3000 µg/mL came to 0 mm in experiment [1] (Dose 3.0 mg/ml), 18 mm in experiment [2] (Dose 3.0 mg/ml) and 16 mm in experiment [3] (Dose 3.0 mg/ml). Moreover, the zone of inhibition at 1000 µg/mL in experiment [4] was found to be 15 mm; in experiment [5] (Dose 1.0 mg/ml), 14 mm. Further, in experiment [6] (setting [8]), the response vs control in vivo at 3.12 mg/kg was 152%. Besides, the response vs control in vivo at 6.25 mg/kg in experiment [6] (setting [9]) amounted to 169%.
